Patent US9856511B2, “Protease deubiquitinating inhibitor screening” (priority 2011, dated 2018)

Assays:
[1] = tested on: HCT-116 Bcl-2+ colon carcinoma; assay: Disease free survival of nude mice challenged with HCT-116 Bcl-2+ cells; type: in vivo; conditions: 5 mg/kg 4-5 times weekly for 3 weeks; log-rank P=0.0136
Procedure: Animal experiments were conducted in full accordance with Swedish governmental statutory regulations on animal welfare under permission from local ethical committees. Animals were housed at a max of five per cage and provided with sterile water and food ad libitum. All mice were monitored and weighed daily. For the head and neck carcinoma model a 100-μl cell suspension containing 1×10^6 FaDu cells was injected subcutaneously into the right rear flank of the animals. After injection, tumor growth was measured daily with calipers and the tumor volume calculated by the formula […]. When tumors had grown to a size of approximately 200 mm^3 (Day 0) mice were randomized to receive either vehicle (n=10) or b-AP15 5 mg/kg^−1 by subcutaneous injection s.c. (n=15) daily. […] Nineteen days after malignant cell injection all of the mice were killed and histopathological manifestations of liver, ovary (target organs for this model of tumor) were evaluated and compared between groups. […]
SCID mice bearing FaDu human tumor xenografts were randomized at tumor take (200 mm^3) and treated by daily subcutaneous injection with either vehicle (n=10) or 5 mg kg^−1 b-AP15 (n=15) for 10 days. […] Mice were treated with vehicle (n=6) or 5 mg kg^−1 b-AP15 (n=6) 4-5 times weekly for 3 weeks and monitored for tumor onset (log-rank, P=0.0136, hazard ratio=7.9). […]

[2] = tested on: cellular DUB activity (HCT-116 cells); assay: Cellular DUB activity, Ub-AMC cleavage in lysates of treated cells; type: cell-based; conditions: b-AP15 treated cells
Text: b-AP15 comprises an α-β dienone entity with two sterically accessible β carbons. A structurally similar pharmacophore has been earlier described to be comprised by a class of ubiquitin isopeptidase inhibitors (21). […] In the opinion of the present inventors the similarities in pharmacophore structure and the data showing that b-AP15 inhibits proteasome activity independent of the 20S CP indicate that b-AP15 represents a novel class of proteasome inhibitors that block the deubiquitinating activity of the 19S RP.
HTC-116 cells were treated for 3 h with b-AP15 (1 μM) (FIG. 10). Lysates treated with 10 mM N-ethylmaleimide (NEM) were included as a control for total DUB inhibition. DUB activity was determined from cell lysates by measuring cleavage of the fluorogenic substrate ubiquitin-7-amido-4-methylcoumarin (Ub-AMC).

[3] = tested on: non-proteasomal DUBs (UCH-L1, UCH-L3, USP2CD, USP7CD, USP8CD, BAP1); assay: Recombinant non-proteasomal DUBs with ubiquitin-AMC, % activity; type: biochemical
Procedure: In vitro proteasome activity assays using 20S CP (2 nM) (Boston Biochem) were performed at 37° C. in 100-μl reaction buffer (25 mM Hepes, 0.5 mM EDTA, 0.03% SDS). Samples were incubated for 10 min with indicated compound followed by addition of 10 μM Suc-LLVY-AMC, Z-LLE-AMC or Boc-LRR-AMC for the detection of chymotrypsin-like, caspase-like and trypsin-like activity respectively. For DUB inhibition assays 19S RP (5 nM), 26S (5 nM) UCH-L1 (5 nM), UCH-L3 (0.3 nM), USP2CD (5 nM) USP7CD (5 nM) USP8CD (5 nM) and BAP1 (5 nM) were incubated with b-AP15 followed by addition of ubiquitin-AMC (1000 nM). Fluorescence was monitored using Wallac Multilabel counter or Tecan Infinite M1000 equipped with 360 nm excitation and 460 nm emission filters. Substrate overlay assays. Native gel electrophoresis was performed as described (41). In brief 4 μg of purified 26S proteasome (Boston Biochem) was mixed with 10 or 50 μM b-AP15 and incubated at 37° C. for 10 min. Samples were resolved on 4% non-denaturing PAGE. Gels were submerged in assay buffer (20 mM Tris-HCL, 5 mM MgCl2, 1 mM ATP, 0.1 mM Suc-LLVY-AMC) and proteasomes were visualized under UV illumination.
HCT-116 cells were treated for 3 h with b-AP15 (1 μM) and the proteasomes were affinity purified (FIG. 12a). […] Recombinant non-proteosomal DUBs were treated with b-AP15 and % activity determined. […]

C=CC(=O)N1C/C(=C\c2ccc([N+](=O)[O-])cc2)C(=O)/C(=C/c2ccc([N+](=O)[O-])cc2)C1 [b-AP15]
disease free survival (tumor onset), hazard ratio [1]: 7.9 | cellular DUB activity (Ub-AMC cleavage) [2]: no reduction in Ub-AMC cleavage | inhibition of recombinant non-proteasomal DUBs [3]: does not inhibit non-proteasomal DUBs
